This passage reports relative viability results from the supplement of paper PMC10307832.

Assay in all cases: relative viability (nuclei count vs DMSO), 5 days (fraction); higher = more cells survive
Compound in the test “Dovitinib + Pemetrexed”: CN1CCN(c2ccc3nc(-c4c(N)c5c(F)cccc5[nH]c4=O)[nH]c3c2)CC1 [Dovitinib] + Nc1nc2[nH]cc(CCc3ccc(C(=O)N[C@@H](CCC(=O)O)C(=O)O)cc3)c2c(=O)[nH]1 [Pemetrexed] (partner 0.2 µM)
In a few lines:
(§1)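 Lung cancer cell lines were pin-tool dosed in 1536-well plates on the day after seeding, with either a lone drug or a fixed anchor-drug dose plus five library-drug doses (not always all listed) in √10 steps. Nuclei were counted on 4× images after 5 days. Relative viability is the ratio of treated-well to vehicle-well nuclei counts, with each value a median of duplicate plates.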

Compound in the test “Dovitinib + Navitoclax”: CN1CCN(c2ccc3nc(-c4c(N)c5c(F)cccc5[nH]c4=O)[nH]c3c2)CC1 [Dovitinib] + CC1(C)CCC(c2ccc(Cl)cc2)=C(CN2CCN(c3ccc(C(=O)NS(=O)(=O)c4ccc(N[C@H](CCN5CCOCC5)CSc5ccccc5)c(S(=O)(=O)C(F)(F)F)c4)cc3)CC2)C1 [Navitoclax] (partner 0.5 µM)
Summed up:
as §1

Compound in the test “Dovitinib + Phenformin”: CN1CCN(c2ccc3nc(-c4c(N)c5c(F)cccc5[nH]c4=O)[nH]c3c2)CC1 [Dovitinib] + N=C(N)NC(=N)NCCc1ccccc1 [Phenformin] (partner 250 µM)
Summed up:
as §1

Compound in the test “Dovitinib + Trametinib”: CN1CCN(c2ccc3nc(-c4c(N)c5c(F)cccc5[nH]c4=O)[nH]c3c2)CC1 [Dovitinib] + CC(=O)Nc1cccc(-n2c(=O)n(C3CC3)c(=O)c3c(Nc4ccc(I)cc4F)n(C)c(=O)c(C)c32)c1 [Trametinib] (partner 0.02 µM)
In a few lines: as §1

For the cell line A-427, the relative viability in the test with Dovitinib + Pemetrexed (first compound 0.02 µM) is 0.907; with Dovitinib + Pemetrexed (first compound 0.06325 µM) it was 0.988; with Dovitinib + Pemetrexed (first compound 0.2 µM) it was 1.04; with Dovitinib + Pemetrexed (first compound 0.6325 µM), 0.967; in the test with Dovitinib + Pemetrexed (first compound 2 µM), 1.06; in the test with Dovitinib + Navitoclax (first compound 0.02 µM), 0.91. Moreover, the relative viability came to 0.933 with Dovitinib + Navitoclax (first compound 0.06325 µM); 0.942 with Dovitinib + Navitoclax (first compound 0.2 µM); 0.902 with Dovitinib + Navitoclax (first compound 0.6325 µM); 0.822 with Dovitinib + Navitoclax (first compound 2 µM); 0.363 with Dovitinib + Phenformin (first compound 0.02 µM); 0.3 with Dovitinib + Phenformin (first compound 0.06325 µM). In addition, the relative viability with Dovitinib + Phenformin (first compound 0.2 µM) came to 0.307; with Dovitinib + Phenformin (first compound 0.6325 µM), 0.282; in the test with Dovitinib + Phenformin (first compound 2 µM), 0.347; in the test with Dovitinib + Trametinib (first compound 0.02 µM), 0.724; with Dovitinib + Trametinib (first compound 0.06325 µM), 0.705; with Dovitinib + Trametinib (first compound 0.2 µM), 0.709. Besides, the results for the relative viability in the test with Dovitinib + Trametinib (first compound 0.6325 µM) and with Dovitinib + Trametinib (first compound 2 µM) were 0.768 and 0.72, respectively.

As for NCI-H322M, the relative viability in the test with Dovitinib + Pemetrexed (first compound 0.02 µM) was 0.597; with Dovitinib + Pemetrexed (first compound 0.06325 µM) it was 0.613; in the test with Dovitinib + Pemetrexed (first compound 0.2 µM), 0.634; with Dovitinib + Pemetrexed (first compound 0.6325 µM), 0.607; with Dovitinib + Pemetrexed (first compound 2 µM), 0.6; in the test with Dovitinib + Navitoclax (first compound 0.02 µM) it was 1.17. Further, the relative viability with Dovitinib + Navitoclax (first compound 0.06325 µM) worked out at 1.25; in the test with Dovitinib + Navitoclax (first compound 0.2 µM) it was 1.21; with Dovitinib + Navitoclax (first compound 0.6325 µM), 1.27; in the test with Dovitinib + Navitoclax (first compound 2 µM), 1.23; with Dovitinib + Phenformin (first compound 0.02 µM) it was 0.685; with Dovitinib + Phenformin (first compound 0.06325 µM), 0.737. The relative viability with Dovitinib + Phenformin (first compound 0.2 µM) was determined as 0.811; with Dovitinib + Phenformin (first compound 0.6325 µM) it was 0.751; with Dovitinib + Phenformin (first compound 2 µM), 0.815; with Dovitinib + Trametinib (first compound 0.02 µM), 0.557; with Dovitinib + Trametinib (first compound 0.06325 µM), 0.506; with Dovitinib + Trametinib (first compound 0.2 µM), 0.507. Also, the relative viability was found to be 0.496 in the test with Dovitinib + Trametinib (first compound 0.6325 µM) and 0.543 with Dovitinib + Trametinib (first compound 2 µM).

As to HCC-366, the relative viability with Dovitinib + Pemetrexed (first compound 0.02 µM) was determined as 0.129; with Dovitinib + Pemetrexed (first compound 0.06325 µM), 0.208; with Dovitinib + Pemetrexed (first compound 0.2 µM), 0.161; with Dovitinib + Pemetrexed (first compound 0.6325 µM) it was 0.161; with Dovitinib + Pemetrexed (first compound 2 µM), 0.166; in the test with Dovitinib + Navitoclax (first compound 0.02 µM), 1.07. The relative viability is 1.16 with Dovitinib + Navitoclax (first compound 0.06325 µM); 1.02 with Dovitinib + Navitoclax (first compound 0.2 µM); 1.08 with Dovitinib + Navitoclax (first compound 0.6325 µM); 0.971 with Dovitinib + Navitoclax (first compound 2 µM); 0.628 with Dovitinib + Phenformin (first compound 0.02 µM); 0.6 with Dovitinib + Phenformin (first compound 0.06325 µM). The relative viability with Dovitinib + Phenformin (first compound 0.2 µM) was determined as 0.636; with Dovitinib + Phenformin (first compound 0.6325 µM) it was 0.57; with Dovitinib + Phenformin (first compound 2 µM), 0.641; in the test with Dovitinib + Trametinib (first compound 0.02 µM) it was 0.405; with Dovitinib + Trametinib (first compound 0.06325 µM), 0.379; with Dovitinib + Trametinib (first compound 0.2 µM), 0.338. For the same cell line, the relative viability stood at 0.323 in the test with Dovitinib + Trametinib (first compound 0.6325 µM) and 0.371 with Dovitinib + Trametinib (first compound 2 µM).

NCI-H1975: the relative viability in the test with Dovitinib + Pemetrexed (first compound 0.02 µM) was 0.305; in the test with Dovitinib + Pemetrexed (first compound 0.06325 µM), 0.286; with Dovitinib + Pemetrexed (first compound 0.2 µM), 0.268; in the test with Dovitinib + Pemetrexed (first compound 0.6325 µM), 0.294; with Dovitinib + Pemetrexed (first compound 2 µM), 0.294; in the test with Dovitinib + Navitoclax (first compound 0.02 µM), 1.07. For the same cell line, the relative viability worked out at 1.01 in the test with Dovitinib + Navitoclax (first compound 0.06325 µM); 1.09 with Dovitinib + Navitoclax (first compound 0.2 µM); 1 with Dovitinib + Navitoclax (first compound 0.6325 µM); 1.2 in the test with Dovitinib + Navitoclax (first compound 2 µM); 0.427 with Dovitinib + Phenformin (first compound 0.02 µM); 0.415 with Dovitinib + Phenformin (first compound 0.06325 µM). The relative viability with Dovitinib + Phenformin (first compound 0.2 µM) stood at 0.411; in the test with Dovitinib + Phenformin (first compound 0.6325 µM) it was 0.409; with Dovitinib + Phenformin (first compound 2 µM), 0.423; with Dovitinib + Trametinib (first compound 0.02 µM) it was 0.404; in the test with Dovitinib + Trametinib (first compound 0.06325 µM), 0.405; with Dovitinib + Trametinib (first compound 0.2 µM), 0.329. The relative viability with Dovitinib + Trametinib (first compound 0.6325 µM) came to 0.382; with Dovitinib + Trametinib (first compound 2 µM) it was 0.388.

Regarding NCI-H1437, the relative viability came to 0.293 with Dovitinib + Pemetrexed (first compound 0.02 µM); 0.327 with Dovitinib + Pemetrexed (first compound 0.06325 µM); 0.31 in the test with Dovitinib + Pemetrexed (first compound 0.2 µM); 0.288 with Dovitinib + Pemetrexed (first compound 0.6325 µM); 0.308 with Dovitinib + Pemetrexed (first compound 2 µM); 1.01 with Dovitinib + Navitoclax (first compound 0.02 µM). Further, the relative viability with Dovitinib + Navitoclax (first compound 0.06325 µM) was found to be 1.05; with Dovitinib + Navitoclax (first compound 0.2 µM) it was 1.05; with Dovitinib + Navitoclax (first compound 0.6325 µM), 1.05; with Dovitinib + Navitoclax (first compound 2 µM), 1.07; in the test with Dovitinib + Phenformin (first compound 0.02 µM), 0.297; with Dovitinib + Phenformin (first compound 0.06325 µM), 0.292. The relative viability in the test with Dovitinib + Phenformin (first compound 0.2 µM) was 0.595; with Dovitinib + Phenformin (first compound 0.6325 µM) it was 0.304; in the test with Dovitinib + Phenformin (first compound 2 µM), 0.346; with Dovitinib + Trametinib (first compound 0.02 µM), 0.564; with Dovitinib + Trametinib (first compound 0.06325 µM) it was 0.475; in the test with Dovitinib + Trametinib (first compound 0.2 µM) it was 0.521. Moreover, the relative viability was determined as 0.519 in the test with Dovitinib + Trametinib (first compound 0.6325 µM) and 0.462 with Dovitinib + Trametinib (first compound 2 µM).

Turning to NCI-H2009, the relative viability came to 0.967 with Dovitinib + Pemetrexed (first compound 0.02 µM); 1.06 in the test with Dovitinib + Pemetrexed (first compound 0.06325 µM); 1.03 with Dovitinib + Pemetrexed (first compound 0.2 µM); 0.979 with Dovitinib + Pemetrexed (first compound 0.6325 µM); 1.03 with Dovitinib + Pemetrexed (first compound 2 µM); 1.14 with Dovitinib + Navitoclax (first compound 0.02 µM). The relative viability with Dovitinib + Navitoclax (first compound 0.06325 µM) turned out to be 1.15; with Dovitinib + Navitoclax (first compound 0.2 µM), 1.2; with Dovitinib + Navitoclax (first compound 0.6325 µM), 1.19; with Dovitinib + Navitoclax (first compound 2 µM), 1.19; with Dovitinib + Phenformin (first compound 0.02 µM), 0.456; in the test with Dovitinib + Phenformin (first compound 0.06325 µM), 0.493. The relative viability with Dovitinib + Phenformin (first compound 0.2 µM) is 0.47; with Dovitinib + Phenformin (first compound 0.6325 µM), 0.408; with Dovitinib + Phenformin (first compound 2 µM) it was 0.562; with Dovitinib + Trametinib (first compound 0.02 µM), 0.291; with Dovitinib + Trametinib (first compound 0.06325 µM), 0.301; with Dovitinib + Trametinib (first compound 0.2 µM), 0.289. Moreover, the relative viability was determined as 0.228 with Dovitinib + Trametinib (first compound 0.6325 µM) and 0.265 in the test with Dovitinib + Trametinib (first compound 2 µM).
